Results as given in ChEMBL document CHEMBL5236595, “JDQ443, a Structurally Novel, Pyrazole-Based, Covalent Inhibitor of KRASG12C for the Treatment of Solid Tumors” (J Med Chem, 2022).
In brackets after ≈: the same amount, converted by molar mass.

Assays:
GTPase KRas = GTPase KRas (Homo sapiens, UniProt P01116, G12C); test: Inhibition of KRAS G12C mutant in human NCI-H358 cells assessed as reduction in ERK phosphorylation incubated for 6 hrs by MSD assay; type: cell-based
[1] = Apparent permeability across apical to basolateral side in MDCK-MDR1 cells at 10 uM after 2 hrs by LC-MS/MS analysis; type: ADME, cell-based, Canis lupus familiaris; settings: dog
[2] = Aqueous solubility of compound in pH 4; type: physicochemical; settings: aqueous medium
[3] = Aqueous solubility of compound in pH 6.8; type: physicochemical; settings: aqueous medium
[4] = Lipophilicity, logD of compound at pH 7.4; type: physicochemical; settings: buffer
[5] = AUC in human MIA PaCa-2 cells xenografted mouse at 30 mg/kg, po; type: ADME, organism-based; parameters: dose 30 mg/kg, route po; settings: in vivo
[6] = Cmax in human MIA PaCa-2 cells xenografted mouse at 30 mg/kg, po; type: ADME, organism-based; parameters: dose 30 mg/kg, route po; settings: in vivo
[7] = test system: GTPase KRas (Homo sapiens), P01116 [G12C]; test: In vivo target occupancy at KRAS G12C mutant in human MIA PaCa-2 cells xenografted mouse assessed as decrease in free KRAS G12C level at 30 mg/kg, po after 3 hrs; type: functional, organism-based
Sequence of GTPase KRas (Homo sapiens), P01116 [G12C] (P01116 whole entry G12C): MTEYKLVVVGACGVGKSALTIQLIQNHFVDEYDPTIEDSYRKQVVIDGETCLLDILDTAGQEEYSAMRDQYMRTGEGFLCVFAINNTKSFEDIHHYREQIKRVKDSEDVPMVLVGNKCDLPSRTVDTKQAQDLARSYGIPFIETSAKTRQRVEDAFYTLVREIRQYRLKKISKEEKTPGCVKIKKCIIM

[8] = test system: GTPase KRas (Homo sapiens), P01116 [G12C]; test: In vivo target occupancy at KRAS G12C mutant in human MIA PaCa-2 cells xenografted mouse assessed as decrease in free KRAS G12C level at 30 mg/kg, po after 6 hrs; type: functional, organism-based
[9] = test system: GTPase KRas (Homo sapiens), P01116 [G12C]; test: In vivo target occupancy at KRAS G12C mutant in human MIA PaCa-2 cells xenografted mouse assessed as decrease in free KRAS G12C level at 30 mg/kg, po after 24 hrs; type: functional, organism-based
[10] = test system: GTPase KRas (Homo sapiens), P01116 [G12C]; test: In vivo target occupancy at KRAS G12C mutant in human MIA PaCa-2 cells xenografted mouse assessed as decrease in […] expression at 30 mg/kg, po after 3 hrs; type: functional, organism-based
[11] = test system: GTPase KRas (Homo sapiens), P01116 [G12C]; test: In vivo target occupancy at KRAS G12C mutant in human MIA PaCa-2 cells xenografted mouse assessed as decrease in […] expression at 30 mg/kg, po after 6 hrs; type: functional, organism-based
[12] = test system: GTPase KRas (Homo sapiens), P01116 [G12C]; test: In vivo target occupancy at KRAS G12C mutant in human MIA PaCa-2 cells xenografted mouse assessed as decrease in […] expression at 30 mg/kg, po after 24 hrs; type: functional, organism-based
[13] = Volume of distribution at steady state in mouse at 1 mg/kg, iv measured upto 24 hrs by LC-MS/MS method; type: ADME, organism-based; settings: in vivo, read-out: Vdss
[14] = Tmax in mouse at 30 mg/kg, po measured upto 24 hrs by LC-MS/MS method; type: ADME, organism-based; settings: in vivo
[15] = Cmax in mouse at 30 mg/kg, po measured upto 24 hrs by LC-MS/MS method; type: ADME, organism-based; parameters: dose 30 mg/kg, time < 24 hrs, route po; settings: in vivo
[16] = AUCinfinity in mouse at 30 mg/kg, po measured upto 24 hrs by LC-MS/MS method; type: ADME, organism-based; parameters: dose 30 mg/kg, time < 24 hrs, route po; settings: in vivo
[17] = Volume of distribution at steady state in Beagle dog at 0.1 mg/kg, iv measured upto 24 hrs by LC-MS/MS method; type: ADME, organism-based, Canis lupus familiaris; settings: in vivo, read-out: Vdss
[18] = Tmax in Beagle dog at 15 mg/kg, po measured upto 24 hrs by LC-MS/MS method; type: ADME, organism-based, Canis lupus familiaris; settings: in vivo
[19] = Cmax in Beagle dog at 15 mg/kg, po measured upto 24 hrs by LC-MS/MS method; type: ADME, organism-based, Canis lupus familiaris; parameters: time < 24 hrs, dose 15 mg/kg, route po; settings: in vivo
[20] = AUCinfinity in Beagle dog at 15 mg/kg, po measured upto 24 hrs by LC-MS/MS method; type: ADME, organism-based, Canis lupus familiaris; parameters: dose 15 mg/kg, time < 24 hrs, route po; settings: in vivo
[21] = Dose normalized AUC in Beagle dog at 15 mg/kg, po measured upto 24 hrs by LC-MS/MS method; type: ADME, organism-based, Canis lupus familiaris; settings: in vivo
[22] = Dose normalized AUC in mouse at 30 mg/kg, po measured upto 24 hrs by LC-MS/MS method; type: ADME, organism-based; settings: in vivo
NCI-H358 = test: Antiproliferative activity against human NCI-H358 cells by resazurin assay; type: functional
NCI-H1437 = test: Antiproliferative activity against human NCI-H1437 cells by resazurin assay; type: functional
[23] = Solubility of compound in FaSSIF; type: ADME
[24] = Solubility of compound in FeSSIF; type: ADME
[25] = Apparent permeability in human Caco-2 cells; type: ADME, cell-based
Cytochrome P450 3A4 [26] = target: T1, Cytochrome P450 3A4 (Homo sapiens, UniProt P08684); test: Inhibition of CYP3A4 in human liver microsomes using testosterone as substrate incubated for 10 to 30 mins in presence of NADPH by LC-MS/MS method; type: ADME, Microsome
T1 sequence (P08684 whole entry): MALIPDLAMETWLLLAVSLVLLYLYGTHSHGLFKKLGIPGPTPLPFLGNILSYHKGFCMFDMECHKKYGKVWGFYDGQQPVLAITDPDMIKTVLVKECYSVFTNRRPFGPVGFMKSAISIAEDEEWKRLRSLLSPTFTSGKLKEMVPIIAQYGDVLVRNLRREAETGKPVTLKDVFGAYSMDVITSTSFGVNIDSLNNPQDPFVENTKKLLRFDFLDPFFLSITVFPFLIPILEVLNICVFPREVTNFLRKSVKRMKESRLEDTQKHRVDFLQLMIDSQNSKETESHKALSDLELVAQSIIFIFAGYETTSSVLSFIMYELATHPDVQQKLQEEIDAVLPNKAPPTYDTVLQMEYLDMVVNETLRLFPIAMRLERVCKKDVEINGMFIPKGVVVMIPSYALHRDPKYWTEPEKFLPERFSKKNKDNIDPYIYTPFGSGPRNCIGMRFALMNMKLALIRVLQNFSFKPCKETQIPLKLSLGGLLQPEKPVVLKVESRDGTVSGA

Cytochrome P450 2D6 = Cytochrome P450 2D6 (Homo sapiens, UniProt P10635); test: Inhibition of CYP2D6 in human liver microsomes using bufuralol as substrate incubated for 10 to 30 mins in presence of NADPH by LC-MS/MS method; type: ADME, Microsome
Sequence of Cytochrome P450 2D6 (P10635 whole entry): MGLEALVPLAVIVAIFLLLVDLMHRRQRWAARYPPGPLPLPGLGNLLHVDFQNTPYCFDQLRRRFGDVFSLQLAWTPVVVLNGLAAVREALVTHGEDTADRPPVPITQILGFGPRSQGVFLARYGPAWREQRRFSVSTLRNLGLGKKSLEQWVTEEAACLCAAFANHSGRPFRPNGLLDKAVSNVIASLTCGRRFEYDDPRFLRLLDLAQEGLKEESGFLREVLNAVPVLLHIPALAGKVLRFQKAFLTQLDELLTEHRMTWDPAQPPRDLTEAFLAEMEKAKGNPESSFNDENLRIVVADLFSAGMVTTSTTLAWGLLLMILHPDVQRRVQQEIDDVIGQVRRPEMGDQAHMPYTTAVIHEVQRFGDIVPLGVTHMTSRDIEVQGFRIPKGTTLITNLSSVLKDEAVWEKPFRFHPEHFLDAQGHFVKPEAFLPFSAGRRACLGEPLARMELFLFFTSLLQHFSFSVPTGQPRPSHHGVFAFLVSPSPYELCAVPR

Cytochrome P450 2C9 [27] = target: T2, Cytochrome P450 2C9 (Homo sapiens, UniProt P11712); test: Inhibition of CYP2C9 in human liver microsomes using diclofenac as substrate incubated for 10 to 30 mins in presence of NADPH by LC-MS/MS method; type: ADME, Microsome
T2 sequence (P11712 whole entry): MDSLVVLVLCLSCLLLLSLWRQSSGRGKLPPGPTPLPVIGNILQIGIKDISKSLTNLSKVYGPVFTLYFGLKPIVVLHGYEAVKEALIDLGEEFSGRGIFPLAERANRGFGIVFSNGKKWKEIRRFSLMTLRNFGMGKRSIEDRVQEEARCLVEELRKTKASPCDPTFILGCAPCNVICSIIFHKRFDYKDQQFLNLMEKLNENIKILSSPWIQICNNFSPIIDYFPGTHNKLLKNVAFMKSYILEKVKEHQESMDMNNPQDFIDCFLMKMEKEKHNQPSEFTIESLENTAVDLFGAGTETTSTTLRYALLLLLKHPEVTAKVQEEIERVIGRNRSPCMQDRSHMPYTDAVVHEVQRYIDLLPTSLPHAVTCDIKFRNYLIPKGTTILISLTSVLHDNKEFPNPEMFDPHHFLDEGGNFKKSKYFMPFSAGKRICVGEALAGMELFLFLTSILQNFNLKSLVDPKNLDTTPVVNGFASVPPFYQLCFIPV

Cytochrome P450 3A4 [28] = target: T1, Cytochrome P450 3A4; test: Time dependent inhibition of CYP3A4 in pooled human liver microsomes measured upto 30 mins by LC-MS/MS method; type: ADME, Microsome; settings: 0.5 h
Cytochrome P450 2C9 [29] = target: T2, Cytochrome P450 2C9; test: Time dependent inhibition of CYP2C9 in pooled human liver microsomes measured upto 30 mins by LC-MS/MS method; type: ADME, Microsome; settings: 0.5 h
[30] = target: Voltage-gated inwardly rectifying potassium channel KCNH2 (Homo sapiens, UniProt Q12809); test: Inhibition of human ERG by manual patch clamp method; type: toxicity
Sequence of Voltage-gated inwardly rectifying potassium channel KCNH2 (Q12809 whole entry): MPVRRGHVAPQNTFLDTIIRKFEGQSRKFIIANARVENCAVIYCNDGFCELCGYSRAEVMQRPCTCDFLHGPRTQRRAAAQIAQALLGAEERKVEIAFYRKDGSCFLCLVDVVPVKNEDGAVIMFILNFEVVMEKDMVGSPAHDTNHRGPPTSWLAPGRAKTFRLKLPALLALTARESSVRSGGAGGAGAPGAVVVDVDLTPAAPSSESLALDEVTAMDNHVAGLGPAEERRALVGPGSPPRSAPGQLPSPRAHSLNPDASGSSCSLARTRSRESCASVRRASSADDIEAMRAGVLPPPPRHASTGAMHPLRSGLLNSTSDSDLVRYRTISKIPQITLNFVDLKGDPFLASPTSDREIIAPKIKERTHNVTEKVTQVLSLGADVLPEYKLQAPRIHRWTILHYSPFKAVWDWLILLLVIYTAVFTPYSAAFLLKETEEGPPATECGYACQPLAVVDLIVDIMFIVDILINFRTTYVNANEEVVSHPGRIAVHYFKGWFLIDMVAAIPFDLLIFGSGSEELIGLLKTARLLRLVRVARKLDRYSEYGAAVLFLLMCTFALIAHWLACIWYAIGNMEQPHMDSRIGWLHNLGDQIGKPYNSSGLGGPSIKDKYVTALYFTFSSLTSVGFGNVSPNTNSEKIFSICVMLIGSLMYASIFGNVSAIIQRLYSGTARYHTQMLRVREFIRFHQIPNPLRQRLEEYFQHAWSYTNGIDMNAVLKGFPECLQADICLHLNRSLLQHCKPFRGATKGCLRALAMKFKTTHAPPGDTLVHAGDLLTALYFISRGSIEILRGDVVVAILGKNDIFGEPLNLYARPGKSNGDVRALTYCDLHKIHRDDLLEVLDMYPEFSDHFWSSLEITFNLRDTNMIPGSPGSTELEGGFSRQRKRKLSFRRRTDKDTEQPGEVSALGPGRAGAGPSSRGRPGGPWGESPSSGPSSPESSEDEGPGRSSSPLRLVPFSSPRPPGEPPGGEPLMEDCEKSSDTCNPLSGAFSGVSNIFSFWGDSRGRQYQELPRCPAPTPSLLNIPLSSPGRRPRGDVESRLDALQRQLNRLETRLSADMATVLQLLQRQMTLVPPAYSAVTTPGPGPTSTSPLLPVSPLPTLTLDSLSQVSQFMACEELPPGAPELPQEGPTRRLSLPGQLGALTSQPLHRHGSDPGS

[31] = target: Voltage-dependent L-type calcium channel subunit alpha-1C (Homo sapiens, UniProt Q13936); test: Inhibition of Cav1.2 (unknown origin)
[32] = target: Sodium channel protein type 5 subunit alpha (Homo sapiens, UniProt Q14524); test: Inhibition of Nav1.5 (unknown origin)
Sequence of Sodium channel protein type 5 subunit alpha (Q14524 whole entry): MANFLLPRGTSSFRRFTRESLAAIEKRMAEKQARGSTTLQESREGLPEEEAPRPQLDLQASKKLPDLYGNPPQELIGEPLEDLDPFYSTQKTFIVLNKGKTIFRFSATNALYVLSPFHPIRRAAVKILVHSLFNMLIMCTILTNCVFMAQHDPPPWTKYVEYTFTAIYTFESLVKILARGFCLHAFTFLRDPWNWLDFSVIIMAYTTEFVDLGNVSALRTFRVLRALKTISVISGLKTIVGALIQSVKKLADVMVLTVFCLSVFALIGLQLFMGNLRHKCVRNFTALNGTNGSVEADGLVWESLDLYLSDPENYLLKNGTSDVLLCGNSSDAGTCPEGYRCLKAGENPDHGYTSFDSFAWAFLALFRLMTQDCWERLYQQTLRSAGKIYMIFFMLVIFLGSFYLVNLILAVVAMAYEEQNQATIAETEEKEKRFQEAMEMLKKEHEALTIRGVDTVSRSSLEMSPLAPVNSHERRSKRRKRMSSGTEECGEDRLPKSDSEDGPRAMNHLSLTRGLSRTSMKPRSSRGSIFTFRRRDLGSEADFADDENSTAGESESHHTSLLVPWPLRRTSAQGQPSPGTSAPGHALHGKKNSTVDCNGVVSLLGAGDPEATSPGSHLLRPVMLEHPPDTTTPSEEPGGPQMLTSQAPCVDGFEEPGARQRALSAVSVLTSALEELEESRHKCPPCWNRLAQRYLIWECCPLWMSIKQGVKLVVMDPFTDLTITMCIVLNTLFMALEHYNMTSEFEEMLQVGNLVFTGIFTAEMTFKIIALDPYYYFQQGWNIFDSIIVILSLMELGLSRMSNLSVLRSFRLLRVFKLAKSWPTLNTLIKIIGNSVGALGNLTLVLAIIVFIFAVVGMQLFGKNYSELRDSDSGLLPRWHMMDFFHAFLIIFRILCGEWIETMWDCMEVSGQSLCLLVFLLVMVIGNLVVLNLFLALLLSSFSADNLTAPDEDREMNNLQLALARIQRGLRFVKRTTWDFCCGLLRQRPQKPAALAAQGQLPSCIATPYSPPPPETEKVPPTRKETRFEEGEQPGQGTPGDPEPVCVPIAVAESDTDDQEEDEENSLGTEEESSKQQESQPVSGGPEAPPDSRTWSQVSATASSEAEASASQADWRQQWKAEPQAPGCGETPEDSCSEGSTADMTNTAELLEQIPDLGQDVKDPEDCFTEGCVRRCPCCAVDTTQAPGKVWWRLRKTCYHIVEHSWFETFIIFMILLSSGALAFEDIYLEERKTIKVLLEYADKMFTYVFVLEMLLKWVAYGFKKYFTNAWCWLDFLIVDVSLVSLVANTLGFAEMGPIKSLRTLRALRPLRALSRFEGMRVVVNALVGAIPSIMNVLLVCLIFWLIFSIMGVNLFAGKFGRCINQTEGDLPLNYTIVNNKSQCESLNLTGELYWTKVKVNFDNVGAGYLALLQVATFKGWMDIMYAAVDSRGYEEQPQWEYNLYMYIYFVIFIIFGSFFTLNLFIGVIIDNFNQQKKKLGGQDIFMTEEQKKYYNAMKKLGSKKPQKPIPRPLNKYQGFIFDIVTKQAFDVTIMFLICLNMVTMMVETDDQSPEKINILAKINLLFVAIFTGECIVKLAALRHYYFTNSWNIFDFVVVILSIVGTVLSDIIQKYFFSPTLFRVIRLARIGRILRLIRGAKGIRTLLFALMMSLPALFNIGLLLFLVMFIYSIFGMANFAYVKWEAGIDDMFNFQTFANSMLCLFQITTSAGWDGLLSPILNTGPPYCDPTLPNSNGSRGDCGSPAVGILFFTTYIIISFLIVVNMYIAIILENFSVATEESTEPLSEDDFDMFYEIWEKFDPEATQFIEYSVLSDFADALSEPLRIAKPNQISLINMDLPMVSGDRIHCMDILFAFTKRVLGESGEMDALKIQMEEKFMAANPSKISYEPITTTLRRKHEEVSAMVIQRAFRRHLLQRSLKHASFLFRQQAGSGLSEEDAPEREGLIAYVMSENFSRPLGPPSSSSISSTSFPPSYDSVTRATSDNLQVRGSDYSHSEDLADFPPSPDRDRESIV

Cav1.2 = Cav1.2 (Homo sapiens, UniProt Q13936); test: Inhibition of Cav1.2 (unknown origin) at 50 uM relative to control
Nav1.5 = Nav1.5 (Homo sapiens, UniProt Q14524); test: Inhibition of Nav1.5 (unknown origin) at 50 uM relative to control
[33] = Plasma protein binding in mouse incubated for 6 hrs by LC-MS/MS based rapid equlibrium dialysis method; type: ADME, cell-free; settings: read-out: PPB (converted)
[34] = Plasma protein binding in rat incubated for 6 hrs by LC-MS/MS based rapid equlibrium dialysis method; type: ADME, cell-free; settings: read-out: PPB (converted)
[35] = Plasma protein binding in dog incubated for 6 hrs by LC-MS/MS based rapid equlibrium dialysis method; type: ADME, cell-free, Canis lupus familiaris; settings: read-out: PPB (converted)
[36] = Plasma protein binding in human incubated for 6 hrs by LC-MS/MS based rapid equlibrium dialysis method; type: ADME, cell-free; settings: read-out: PPB (converted)
[37] = Toxicity in mouse xenografted with human MIA PaCa-2 cells assessed as tolerability at 3 to 30 mg/kg, po; type: organism-based; settings: in vivo, dose 3-30 mg/kg
[38] = Tmax in mouse xenografted with human MIA PaCa-2 cells at 3 to 30 mg/kg, po; type: ADME, organism-based; settings: in vivo, dose 3-30 mg/kg
MIA PaCa-2 [39] = test: Antitumor activity against human MIA PaCa-2 cells xenografted in mouse assessed as tumor regression at 10 mg/kg, po; type: functional
MIA PaCa-2 [40] = test: Antitumor activity against human MIA PaCa-2 cells xenografted in mouse assessed as tumor regression at 30 mg/kg, po; type: functional

Sequence of GTPase KRas (P01116 whole entry G12C): as the sequence (P01116 whole entry G12C) above

C=CC(=O)N1CC2(CC(n3nc(-c4ccc5c(cnn5C)c4)c(-c4c(Cl)c(C)cc5[nH]ncc45)c3C)C2)C1 [OPNURASIB]
IC50 (GTPase KRas): 0.02 µM
Papp A→B at 2 h, 10 µM [1]: 5 ×10⁻⁶ cm/s
solubility [2]: 10 µM (≈ 5.26 µg/mL)
solubility [3]: 10 µM (≈ 5.26 µg/mL)
logD [4]: 4.6
AUC [5]: 8.9 µM·h
Cmax [6]: 1700 nM
Occ [7]: 3%
Occ [8]: 2%
Occ [9]: 23%
Occ [10]: 27%
Occ [11]: 37%
Occ [12]: 100%
Vd [13]: 5.9 L/kg
Tmax [14]: 0.5 h
Cmax [15]: 2000 nM
AUC(0-inf) [16]: 6 µM·h
Vd [17]: 4.2 L/kg
Tmax [18]: 5 h
Cmax [19]: 1100 nM
AUC(0-inf) [20]: 10 µM·h
AUC/dose [21]: 0.65 µM·h
AUC/dose [22]: 0.2 µM·h
GI50 (NCI-H358): 0.018 µM
GI50 (NCI-H1437): 4.4 µM
solubility [23]: 6 µg/mL (≈ 11.4 µM)
solubility [24]: 250 µg/mL (≈ 475 µM)
Papp [25]: 6.78 ×10⁻⁶ cm/s
IC50 (Cytochrome P450 3A4 [26]): 6.23 µM
IC50 (Cytochrome P450 2D6): > 20 µM
IC50 (Cytochrome P450 2C9 [27]): 3.74 µM
TDI (Cytochrome P450 3A4 [28]): Not Active
TDI (Cytochrome P450 2C9 [29]): Not Active
IC50 [30]: > 4.7 µM
IC50 [31]: > 10 µM
IC50 [32]: > 10 µM
inhibition at 50 µM (Cav1.2): 8%
inhibition at 50 µM (Nav1.5): 12%
fraction unbound at 6 h [33]: 0.016
fraction unbound at 6 h [34]: 0.024
fraction unbound at 6 h [35]: 0.031
fraction unbound at 6 h [36]: 0.007
Activity [37]: Non-Toxic
Tmax [38]: 1 h
Activity (MIA PaCa-2 [39]): -34%
Activity (MIA PaCa-2 [40]): -87%
